Data reported in patent publication US20200024278A1, “COMPOSITION COMPRISING ANTIBIOTIC COMPOUND AND AN HETEROCYCLIC COMPOUND AND THEIR USE IN PREVENTING OR TREATING BACTERIAL INFECTIONS” (MUTABILIS, priority 2016, published 2020).

Key:
Experiment in all cases: MIC, broth microdilution (CLSI), substance alone or ATB combined with compound at 4 or 8 μg/mL
Assay type in all cases: cell-based, A. baumannii
ABA 107292 = test system: ABA 107292
Protocol: (§1) Compounds of the present invention were assessed against genotyped bacterial strains alone or in combination with an antibacterial. In the assays, MICs of said compounds or combination of antibiotics with fixed concentrations of said compounds (4 or 8 μg/mL) were determined by the broth microdilution method according to the Clinical Laboratory Standards Institute (CLSI-M7-A7). Briefly, compounds alone according to the invention were prepared in DMSO and spotted (2 μL each) on sterile polystyrene plates (Corning, 3788). Combinations of compounds and antibiotics dilutions were prepared in DMSO and spotted (1 μL each) on sterile polystyrene plates (Corning, 3788). Log phase bacterial suspensions were adjusted to a final density of 5·10^5 CFU/mL in cation-adjusted Mueller-Hinton broth (ca-MHB; Becton-Dickinson and Company) and added to each well (98 μL). Assays including Fosfomycin were supplemented with 25 μg/ml of Glucose-6-phosphate. Microplates were incubated for 16-20 h at 35° C. in ambient air. The MIC of the compounds was defined as the lowest concentration of said compounds that prevented bacterial growth as read by visual inspection. The MIC of ATB at each compound concentration was defined as the lowest concentration of ATB that prevented bacterial growth as read by visual inspection.

ABA UFR154 = test system: ABA UFR154
Protocol: as §1

ABA UFR155 = test system: ABA UFR155
Protocol: as §1

ABA 19606 = test system: ABA 19606
Protocol: as §1

ABA UFR157 = test system: ABA UFR157
Protocol: as §1

ABA UFR151 = test system: ABA UFR151
Protocol: as §1

ABA UFR161 = test system: ABA UFR161
Protocol: as §1

CC1(C)[C@H](C(=O)O)N2C(=O)C[C@H]2S1(=O)=O [SUL]
MIC ATB combined with Example 9 @4 μg/ml (ABA 107292; with Example 9 @4 μg/ml): 8 µg/mL
MIC ATB combined with Example 10 @8 μg/ml (ABA 107292; with Example 10 @8 μg/ml): 4 µg/mL
MIC ATB combined with Example 11 @8 μg/ml (ABA 107292; with Example 11 @8 μg/ml): 32 µg/mL
MIC ATB combined with Example 12 @8 μg/ml (ABA 107292; with Example 12 @8 μg/ml): 2 µg/mL
MIC ATB combined with Example 15 @4 μg/ml (ABA 107292; with Example 15 @4 μg/ml): 4 µg/mL
MIC ATB alone (ABA UFR154; antibiotic alone): 8 µg/mL
MIC ATB combined with Example 1 @8 μg/ml (ABA UFR154; with Example 1 @8 μg/ml): 1 µg/mL
MIC ATB combined with Example 3 @8 μg/ml (ABA UFR154; with Example 3 @8 μg/ml): 0.5 µg/mL
MIC ATB combined with Example 6 @8 μg/ml (ABA UFR154; with Example 6 @8 μg/ml): <=0.25 μg/mL
MIC ATB combined with Example 9 @4 μg/ml (ABA UFR154; with Example 9 @4 μg/ml): 0.5 µg/mL
MIC ATB combined with Example 10 @8 μg/ml (ABA UFR154; with Example 10 @8 μg/ml): <=0.25 μg/mL
MIC ATB combined with Example 11 @8 μg/ml (ABA UFR154; with Example 11 @8 μg/ml): <=0.25 μg/mL
MIC ATB combined with Example 12 @8 μg/ml (ABA UFR154; with Example 12 @8 μg/ml): <=0.25 μg/mL
MIC ATB combined with Example 15 @4 μg/ml (ABA UFR154; with Example 15 @4 μg/ml): 0.5 µg/mL
MIC ATB alone (ABA UFR155; antibiotic alone): 16 µg/mL
MIC ATB combined with Example 1 @8 μg/ml (ABA UFR155; with Example 1 @8 μg/ml): 4 µg/mL
MIC ATB combined with Example 3 @8 μg/ml (ABA UFR155; with Example 3 @8 μg/ml): 1 µg/mL
MIC ATB combined with Example 6 @8 μg/ml (ABA UFR155; with Example 6 @8 μg/ml): 2 µg/mL
MIC ATB combined with Example 9 @4 μg/ml (ABA UFR155; with Example 9 @4 μg/ml): 8 µg/mL
MIC ATB combined with Example 10 @8 μg/ml (ABA UFR155; with Example 10 @8 μg/ml): 2 µg/mL
MIC ATB combined with Example 11 @8 μg/ml (ABA UFR155; with Example 11 @8 μg/ml): 4 µg/mL
MIC ATB combined with Example 12 @8 μg/ml (ABA UFR155; with Example 12 @8 μg/ml): 2 µg/mL
MIC ATB combined with Example 15 @4 μg/ml (ABA UFR155; with Example 15 @4 μg/ml): 8 µg/mL
MIC ATB alone (ABA 19606; antibiotic alone): 1 µg/mL
MIC ATB combined with Example 1 @8 μg/ml (ABA 19606; with Example 1 @8 μg/ml): 1 µg/mL
MIC ATB combined with Example 3 @8 μg/ml (ABA 19606; with Example 3 @8 μg/ml): <=0.25 μg/mL
MIC ATB combined with Example 6 @8 μg/ml (ABA 19606; with Example 6 @8 μg/ml): <=0.25 μg/mL
MIC ATB combined with Example 9 @4 μg/ml (ABA 19606; with Example 9 @4 μg/ml): <=0.25 μg/mL
MIC ATB combined with Example 10 @8 μg/ml (ABA 19606; with Example 10 @8 μg/ml): <=0.25 μg/mL
MIC ATB combined with Example 11 @8 μg/ml (ABA 19606; with Example 11 @8 μg/ml): <=0.25 μg/mL
MIC ATB combined with Example 12 @8 μg/ml (ABA 19606; with Example 12 @8 μg/ml): <=0.25 μg/mL
MIC ATB combined with Example 15 @4 μg/ml (ABA 19606; with Example 15 @4 μg/ml): <=0.25 μg/mL
MIC ATB alone (ABA UFR157; antibiotic alone): 64 µg/mL
MIC ATB combined with Example 1 @8 μg/ml (ABA UFR157; with Example 1 @8 μg/ml): 2 µg/mL
MIC ATB combined with Example 3 @8 μg/ml (ABA UFR157; with Example 3 @8 μg/ml): 0.5 µg/mL
MIC ATB combined with Example 6 @8 μg/ml (ABA UFR157; with Example 6 @8 μg/ml): <0.25 µg/mL
MIC ATB combined with Example 9 @4 μg/ml (ABA UFR157; with Example 9 @4 μg/ml): 1 µg/mL
MIC ATB combined with Example 10 @8 μg/ml (ABA UFR157; with Example 10 @8 μg/ml): 1 µg/mL
MIC ATB combined with Example 11 @8 μg/ml (ABA UFR157; with Example 11 @8 μg/ml): 0.5 µg/mL
MIC ATB combined with Example 12 @8 μg/ml (ABA UFR157; with Example 12 @8 μg/ml): 0.5 µg/mL
MIC ATB combined with Example 15 @4 μg/ml (ABA UFR157; with Example 15 @4 μg/ml): 1 µg/mL
MIC ATB alone (ABA UFR151; antibiotic alone): 2 µg/mL
MIC ATB combined with Example 1 @8 μg/ml (ABA UFR151; with Example 1 @8 μg/ml): 0.5 µg/mL
MIC ATB combined with Example 3 @8 μg/ml (ABA UFR151; with Example 3 @8 μg/ml): <=0.25 μg/mL
MIC ATB combined with Example 6 @8 μg/ml (ABA UFR151; with Example 6 @8 μg/ml): <0.25 µg/mL
MIC ATB combined with Example 9 @4 μg/ml (ABA UFR151; with Example 9 @4 μg/ml): 0.5 µg/mL
MIC ATB combined with Example 10 @8 μg/ml (ABA UFR151; with Example 10 @8 μg/ml): <=0.25 μg/mL
MIC ATB combined with Example 11 @8 μg/ml (ABA UFR151; with Example 11 @8 μg/ml): <=0.25 μg/mL
MIC ATB combined with Example 12 @8 μg/ml (ABA UFR151; with Example 12 @8 μg/ml): <=0.25 μg/mL
MIC ATB combined with Example 15 @4 μg/ml (ABA UFR151; with Example 15 @4 μg/ml): <=0.25 μg/mL
MIC ATB alone (ABA UFR161; antibiotic alone): 128 µg/mL
MIC ATB combined with Example 1 @8 μg/ml (ABA UFR161; with Example 1 @8 μg/ml): 32 µg/mL
MIC ATB combined with Example 3 @8 μg/ml (ABA UFR161; with Example 3 @8 μg/ml): 16 µg/mL
MIC ATB combined with Example 6 @8 μg/ml (ABA UFR161; with Example 6 @8 μg/ml): 16 µg/mL
MIC ATB combined with Example 9 @4 μg/ml (ABA UFR161; with Example 9 @4 μg/ml): 8 µg/mL
MIC ATB combined with Example 10 @8 μg/ml (ABA UFR161; with Example 10 @8 μg/ml): 16 µg/mL
MIC ATB combined with Example 11 @8 μg/ml (ABA UFR161; with Example 11 @8 μg/ml): 8 µg/mL
MIC ATB combined with Example 12 @8 μg/ml (ABA UFR161; with Example 12 @8 μg/ml): 8 µg/mL
MIC ATB combined with Example 15 @4 μg/ml (ABA UFR161; with Example 15 @4 μg/ml): 16 µg/mL
